In paper PMC4493117, “Characterization of the Prokaryotic Sodium Channel NavSp Pore with a Microfluidic Bilayer Platform” (PLoS ONE, 2015):

Target: NavSp pore (Ruegeria pomeroyi, UniProt Q6TMY8)
Conditions: drug added to both sides of bilayer; 0.5 M NaCl, 10 mM HEPES, pH 7.4; room temperature; POPE:POPG 1:1

Sequence of NavSp pore (Q6TMY8 114-258 limits assumed): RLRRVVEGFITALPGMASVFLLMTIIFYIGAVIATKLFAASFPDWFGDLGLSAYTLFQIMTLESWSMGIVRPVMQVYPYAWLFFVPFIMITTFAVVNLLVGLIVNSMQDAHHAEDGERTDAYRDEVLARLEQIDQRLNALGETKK

IC50: 2950 nM
Structure (SMILES): COC(=O)C1=C(C)NC(C)=C(C(=O)OC)C1c1ccccc1[N+](=O)[O-] [nifedipine]
